Earlier results in patent publication US5534537A, “Prodrugs of inhibitors of farnesyl-protein transferase” (Merck & Co., Inc., priority 1995, dated 1996).

System: farnesyl-protein transferase
Conditions: via inhibition of HMG-CoA reductase, literature (Hancock et al.; Casey et al.; Schafer et al.)

| SMILES | Indirect inhibition of farnesyl-protein transferase in vivo |
| --- | --- |
| CC[C@H](C)C(=O)O[C@H]1C[C@@H](C)C=C2C=C[C@H](C)[C@H](CC[C@@H]3C[C@@H](O)CC(=O)O3)[C@H]21 [lovastatin] | Indirect inhibition |
| CC[C@H](C)C(=O)O[C@H]1CCC=C2C=C[C@H](C)[C@H](CC[C@@H]3C[C@@H](O)CC(=O)O3)[C@H]21 [compactin] | Indirect inhibition |
